Test results: patent publication US8367583B2, “Composition and method for controlling pests” (Sumitomo Chemical Company, Limited, priority 2009, dated 2013)

Tests used:
[1] = tested on: first-instar larvae of Pseudaletia Separata; assay: Test Example 2: treatment of the foot of rice seedlings, control rate against Pseudaletia Separata larvae; assay type: in vivo; conditions: rice seedling foot treated with 5 ml, 3 days after release
Procedure: An aqueous solution of the compound I prepared by dissolving the compound I in water was appropriately mixed with a chemical solution of fipronil prepared by diluting Fipronil (Prince Flowable: manufactured by BASF Agro, Ltd.) with water to prepare a mixed chemical solution for test of the compound I and fipronil with a predetermined concentration. The foot of a rice seedling (2 weeks after germination) cultivated in a 90-ml plastic cup using cultivation soil was treated with 5 ml of the mixed chemical solution for test. After 3 days, 30 of first-instar larvae of Pseudaletia Separata were released per plant. After 3 days, the number of surviving larvae was counted and the control rate was calculated using the equation A.
(§1) For comparison, the test was conducted in the same manner using an aqueous solution for test having a predetermined concentration of the compound I prepared by diluting an aqueous solution of the compound I with water, and a chemical solution for test having a predetermined concentration of fipronil prepared by diluting a chemical solution of fipronil with water, respectively.
(§2) Control Rate=100×(1−[(Ts/30)/(Cs/30)]) “Equation A” where Ts and Cs denote the number of surviving larvae in the treatment group and the non-treatment group, respectively. When the control rate is less than 0 (Ts>Cs), it is represented by 0.

[2] = tested on: first-instar larvae of Nilaparvata lugens; assay: Test Example 3: rice seed immersion, control rate against Nilaparvata lugens larvae; assay type: in vivo; conditions: rice seeds immersed 24 hours at 30° C., 7 days after release
From the text: as §2
An aqueous solution of the compound I prepared by dissolving the compound I in water was appropriately mixed with a chemical solution of fipronil prepared by diluting fipronil (Prince Flowable: manufactured by BASF Agro, Ltd.) with water to prepare a mixed chemical solution for test of the compound I and fipronil with a predetermined concentration. In 40 ml of the mixed chemical solution for test, 100 of rice seeds were immersed and allowed to stand at 30° C. for 24 hours, and then each of the 15 seeds were sown in cultivation soil filled in a 90-ml plastic cup. Eleven (11) days after the sowing, 30 of first-instar larvae of Nilaparvata lugens were released on seedlings germinated from the rice seeds. After 7 days, the number of the surviving larvae was counted and the control rate was calculated using the equation A in the same manner as in Example 2.
as §1

Row | SMILES | Control rate ([1]; Fipronil 10 ppm singly (Compound I 0 ppm)) | Control rate ([1]; Fipronil 30 ppm singly (Compound I 0 ppm)) | Control rate ([1]; Fipronil 100 ppm singly (Compound I 0 ppm)) | Control rate ([2]; Fipronil 3.1 ppm singly (Compound I 0 ppm)) | Control rate ([1]; Compound I 10 ppm singly (Fipronil 0 ppm)) | Control rate ([1]; Compound I 30 ppm singly (Fipronil 0 ppm)) | Control rate ([1]; Compound I 100 ppm singly (Fipronil 0 ppm)) | Control rate ([2]; Compound I 50 ppm singly (Fipronil 0 ppm)) | Control rate ([2]; Compound I 200 ppm singly (Fipronil 0 ppm))
1 | N#Cc1nn(-c2c(Cl)cc(C(F)(F)F)cc2Cl)c(N)c1[S+]([O-])C(F)(F)F (stereo not drawn) [Fipronil, 5-amino-1-(2,6-dichloro-α,α,α-trifluoro-p-tolyl)-4-trifluoromethylsulfinyl pyrazole-3-carbonitrile, reference compound] | 23% | 41% | 68% | 50% |  |  |  |  | 
2 | O=C(O)CCC(=O)NCCc1ccccc1 [Compound I, 4-oxo-4-[(2-phenylethyl)amino]-butyric acid] |  |  |  |  | 0% | 0% | 0% | 11% | 21%
